Columns and labels:
A172 cells [1] = assay: [3H]-thymidine incorporation proliferation assay in A172 cells; assay type: cell-based, human; settings: 24 hr; for promotion of proliferation by peptide alone: serum-free media, FIG. 6
Erk = assay: Western blot of phospho-Erk in A172 cell lysates; assay type: cell-based, human; settings: inhibitor added 10 minutes prior to STI1
A172 cells [2] = assay: BrdU incorporation assay in A172 cells; assay type: cell-based, human; settings: peptide 170 nM plus STI1 170 nM, 18 hours, FIG. 7A
Description: Cells were plated overnight on 24-well plates with glass coverslips, at a density of 1×10^4 cells per well, in DMEM high glucose plus 10% FCS at 37° C. Plates were washed 3 times with PBS and were maintained in DMEM without FCS for 30 hours. Cells were then treated for 18 hours with DMEM/10% FCS or DMEM plus mouse recombinant STI1 (170 nM); STI1 (170 nM) plus STI1230-245 peptide (170 nM); or STI1 (170 nM) plus STI161-76 irrelevant peptide (170 nM). Thirty minutes before the end of treatment, cells received a pulse of BrdU (35 μM) and were fixed with 4% paraformaldehyde.
Coverslips were treated with 2N HCl for 30 minutes. The reagent was then removed and borate buffer applied (boric acid 0.1M, sodium hydroxide 0.15M), pH 8.4, for 10 minutes. Then, cells were treated with PBS plus 0.2% Triton X-100 for 15 minutes. The blocking step was made with PBS/0.2% Triton with 20% horse serum, for 1 hour. […]
There were taken at least four microscopic fields of each treatment on WB filter, ranging from 330-385 nm (DAPI), plus their respective BrdU images, on WIB filter, 450-480 nm using DP controller software, Olympus. Picture files were analyzed on ImageJ software, and the percentage of BrdU positive nuclei in respect to total nuclei number (DAPI) was calculated using the Analyze Particles tool. […]

U87MG cells = assay: BrdU incorporation assay in U87MG cells; assay type: cell-based, human; settings: 24 hours; for effect of peptide on cell proliferation mediated by STI1 (BrdU): peptide 0.17 μM or 8 μM plus STI1 0.17 μM, FIG. 8; for effect of peptide on STI1-promoted U87MG proliferation (BrdU): FIG. 7B; for effect of TAT peptide on cell proliferation mediated by STI1 (BrdU): TAT peptide 0.17 μM plus STI1 0.17 μM, FIG. 9
Description: Cells were plated overnight on 24-well plates with glass cover slips, at a density of 1.5×10^4 cells per well, with DMEM with 10% FCS at 37° C. Plates were washed 3 times with PBS and were maintained in DMEM F12 for 48 hours. Cells were then treated for 24 hours with DMEM/10% FCS or DMEM plus mouse recombinant STI1 (170 nM); recombinant STI1 (170 nM) plus mouse peptide STI1230-245(ELGNDAYKKKDFDKAL) (SEQ ID NO: 1) or its human homologue peptide Hop230-245(ELGNDAYKKKDFDTAL) (SEQ ID NO: 2) (170 nM or 8 μM); STI1 (170 nM) plus STI1/Hop61-76 (GCKTVDLKPDWGKGYS) (SEQ ID NO: 3) irrelevant peptide (170 nM or 8 μM); or each one of the peptides alone. Two hours before the end of treatment, cells received a pulse of BrdU (35 μM) pulse and were fixed with 4% paraformaldehyde.
Coverslips were treated with 2N HCl for 30 minutes. The reagent was then removed and borate buffer applied (boric acid 0.1M, sodium hydroxide 0.15M), pH 8.4, for 10 minutes. Then, cells were treated with PBS plus 0.2% Triton X-100 for 15 minutes. The blocking step was made with PBS/0.2% Triton with 20% horse serum, for 1 hour. Primary anti-BrdU biotinylated antibodies (1:100) were applied overnight (diluted in PBS/0.2% Triton with 1% horse serum). Coverslips were washed 3 times with PBS and incubated for one hour with Strepta-Alexa 488 and DAPI reagents (1:1000), washed more 3 times with PBS and assembled to slides.
There were taken at least four microscopic fields of each treatment on WB filter, ranging from 330-385 nm (DAPI), plus their respective BrdU images, on WIB filter, 450-480 nm using DP controller software, Olympus. Picture files were analyzed on ImageJ software, and the percentage of BrdU positive nuclei in respect to total nuclei number (DAPI) was calculated using the Analyze Particles tool.
FIG. 7B: Treatment of U87MG cells with STI1230-245 peptide abrogates cell proliferation mediated by STI1. U87MG human glioblastoma cells were plated at 1.5×10^4 confluence on glass cover slips of 12 mm. After overnight adherence, cells were starved on serum-free media for 48 hours. Cells were subjected to distinct treatments (see picture) for 24 hours, and a BrdU pulse of 32 μM was performed on the last 2 hours of treatment. Immunofluorescence and cell imaging were done in order to permit absolute cell counting. Values represent percentage of BrdU positive cell nuclei from total number of cell nuclei. FCS (fetal calf serum), STI1/Hop (0.17 μM or 8 μM) and/or STI1230-245 (0.17 μM or 8 μM) and/or STI1/Hop61-76 (irrelevant N-terminus STI1/Hop peptide, 0.17 μM or 8 μM). *Statistically significant from control (without treatment), p<0.001. Bars shown as mean±SEM.
FIG. 8: Hop230-245 peptide inhibits the U87MG cell proliferation mediated by STI1. U87MG human glioblastoma cells were plated at 1.5×10^4 confluence on glass cover slips of 12 mm. After overnight adherence, cells were starved on serum-free media for 48 hours. Cells were subjected to distinct treatments (see picture) for 24 hours, and a BrdU pulse of 32 μM was performed on the last 2 hours of treatment. Immunofluorescence and cell imaging were done in order to permit absolute cell counting. Values represent percentage of BrdU positive cell nuclei from total number of cell nuclei. STI1 (0.17 μM) and/or Hop230-245 (0.17 μM or 8 μM) and/or STI1/Hop61-76 (irrelevant STI1/Hop61-76, 0.17 μM or 8 μM). *Statistically significant from control (without treatment), p<0.01. Bars shown as mean±SEM.
FIG. 9: Treatment of U87MG cells with TAT-STI1230-245 and TAT-Hop230-245 peptides inhibits cell proliferation mediated by STI1. U87MG human glioblastoma cells were plated at 1.5×10^4 confluence on glass cover slips of 12 mm. After overnight adherence, cells were starved on serum-free media for 48 hours. Cells were subjected to distinct treatments (see picture) for 24 hours, and a BrdU pulse of 32 μM was performed on the last 2 hours of treatment. Immunofluorescence and cell imaging were done in order to permit absolute cell counting. […]

rats = assay: One-trial step-down inhibitory avoidance (IA) long-term memory test; assay type: in vivo, rat
Excerpt: Rats were trained in a one-trial, step-down IA paradigm, a hippocampal-dependent learning task in which stepping down from a platform present in a given context is associated with a foot shock, resulting in an increase in step-down latency when the animal is brought back to the training chamber for a retention test (Cammarota et al., 2004). The IA apparatus was a 50×25×25 cm Plexiglas box with a 5-cm-high, 8-cm-wide and 25-cm-long platform on the left end of a series of bronze bars that constitutes the floor of the box. During training, each animal was gently placed on the platform facing the left rear corner of the training box. When an animal stepped down and placed all four of its paws on the grid, it received a 2-s, 0.5-mA foot shock and was then immediately withdrawn from the training box. Animals were replaced in the IA box for retention testing 90 min (for short-term memory (STM)), or 24 h later (for long-term memory (LTM)); their latency to step down onto the grid was recorded. The difference between the training and test-session step-down latencies was taken as a measure of retention. Better memory for the training was inferred from longer retention latencies (Bernabeu et al., 1997; Izquierdo et al., 1997). The maximum retention latency allowed was 180 s, at which time the animal was taken out of the IA box if it had not stepped down and given a score of 180 s. Full details of the experimental protocols can be found in Coitinho et al., 2007.
The data obtained in tests of the effect of peptides on rat long-term memory are presented as medians±interquartile range and were analyzed by the Kruskal-Wallis nonparametric test followed by Dunn's post-hoc (n=10 to 13 animals for each treatment group). In all comparisons, p<0.05 was taken as a significant difference.
FIG. 11: STI1230-245 peptide and TAT-STI1230-245 peptides are capable of increasing long-term memory. The latency to step down before treated rats was recorded (Training) and immediately after training animals received a bilateral hippocampal infusion of saline, STI1230-245 peptide, TAT-STI1230-245 or TAT-STI161-76 irrelevant peptide at the concentration of 15 ng/μl in a total volume of 0.5 μl/side. The latency to step down was tested again 24 hours later (LTM test) and measures Long-term memory (LTM). Data are shown as mean±SE of step-down latencies (n=12 rats in each group). *p<0.05 vs control.

[3] = target: cellular prion protein (PrP^C), endogenous, on human glioblastoma cells (A172, U87MG) (human (A172 human glioblastoma cell line)) (UniProt P04156); assay: cell-based or functional assay

## N#CC(=C(/N)Sc1ccccc1N)/C(C#N)=C(\N)Sc1ccccc1N [U0126]
A172 cells [1]; U0126 10 μM or LY294002 5 μM added 10 minutes before STI1 170 nM
  effect of inhibitor on STI1-induced proliferation: completely abolished STI1-induced proliferation
Erk
  effect of co-treatment on STI1-induced Erk activation: abolished

## ELGNDAYKKKDFDKAL (listed as Mus musculus) [STI1230-245]
A172 cells [1]
  promotion of proliferation by peptide alone: unable by itself to promote proliferation
A172 cells [2]
  effect of peptide on STI1-induced proliferation (BrdU): inhibited STI1-induced proliferation
U87MG cells
  effect of peptide on cell proliferation mediated by STI1 (BrdU): able to abrogate the cell proliferation mediated by STI1
U87MG cells; peptide 170 nM plus STI1 170 nM
  effect of peptide on STI1-promoted U87MG proliferation (BrdU): blocked
U87MG cells; peptide 8 μM plus STI1 170 nM
  effect of peptide on STI1-promoted U87MG proliferation (BrdU): blocked
rats; bilateral hippocampal infusion immediately after training, 15 ng/μl, 0.5 μl/side
  long-term memory (retention latency, LTM test 24 hours after training): greatly enhanced long-term memory
rats; rats, FIG. 11
  effect in memory consolidation: potent effect in memory consolidation

## ELGNDAYKKKDFDTAL (listed as Homo sapiens) [Hop230-245, human homologue of mouse STI1230-245 peptide]
U87MG cells
  effect of peptide on cell proliferation mediated by STI1 (BrdU): able to abrogate the cell proliferation mediated by STI1
rats; rats, FIG. 11
  effect in memory consolidation: potent effect in memory consolidation

## GCKTVDLKPDWGKGYS (listed as Homo sapiens) [STI1/Hop61-76, N-terminus irrelevant STI1/Hop peptide, reference compound]
A172 cells [1]
  promotion of proliferation by peptide alone: did not enhance proliferation
A172 cells [2]
  effect of peptide on STI1-induced proliferation (BrdU): no effect
U87MG cells
  effect of peptide on cell proliferation mediated by STI1 (BrdU): had no effect upon proliferation mediated by STI1

## YGRKKRRQRRRELGNDAYKKKDFDKAL (conjugate of seq id nos 1 and 8) [TAT-STI1230-245]
U87MG cells
  effect of TAT peptide on cell proliferation mediated by STI1 (BrdU): able to block cell proliferation mediated by STI1
rats; rat, in vivo
  effect in memory consolidation: potent effect in memory consolidation
  long-term memory (retention latency, LTM test 24 hours after training): greatly enhanced long-term memory

## YGRKKRRQRRRELGNDAYKKKDFDTAL (conjugate of seq id nos 2 and 8) [TAT-Hop230-245]
U87MG cells
  effect of TAT peptide on cell proliferation mediated by STI1 (BrdU): able to block cell proliferation mediated by STI1
rats; rat, in vivo
  effect in memory consolidation: potent effect in memory consolidation

## recombinant mouse stress-inducible phosphoprotein 1 (STI1), wild type (from UniProt Q60864 1-543) (ligand)
[3]
  BrdU incorporation (proliferation) of A172 cells: 1.5 fold
  BrdU incorporation (proliferation) of U87MG cells: 3 fold
  [3H]-thymidine incorporation of A172 cells, concentration of the maximum effect: 170 nM

Reference: patent publication US8802631B2, “Peptides and methods for the treatment of gliomas and other cancers” (Ludwig Institute for Cancer Research Ltd., priority 2007, dated 2014)
